molecular target: human histamine H3 receptor (Homo sapiens, UniProt Q9Y5N1); test: H3 GTPγS assay (SPA method), histamine H3 in vitro assay; type: biochemical; conditions: not given
Protocol: Briefly, cells expressing the human histamine H3 receptor were homogenized in 15 mM Tris-HCl pH 7.5, 2 mM MgCl2, 0.3 mM EDTA, and 1 mM EGTA. […] Membranes were frozen in liquid nitrogen until use. On the day of the assay, membranes were thawed and diluted in assay buffer (20 mM HEPES pH 7.4, 100 mM NaCl, 10 μg/ml saponin, 1 mM MgCl2) to give 500 μg/ml and mixed (v/v) with GDP in assay buffer for a final GDP concentration of 10 μM and incubated on ice for at least […]. PVT-WGA beads (Amersham, RPNQ001) were diluted in assay buffer at 50 mg/mL and mixed with GTPγ[^35S] (Amersham, SJ1308) diluted in assay buffer to give ˜25,000 dpm/10 μL and mixed vol/vol just before the start of the reaction.
For antagonists testing, 10 μL of a reference agonist ([…]) instead of 10 μL buffer was added at a concentration corresponding to the EC80 (30 nM).
The compounds provided herein were tested in the histamine H3 in vitro assay. In one embodiment, the respective HCl salts of the compounds provided herein were prepared using standard chemical procedures and tested in the histamine H3 in vitro assay.

human histamine H3 receptor, sequence (Q9Y5N1 whole entry): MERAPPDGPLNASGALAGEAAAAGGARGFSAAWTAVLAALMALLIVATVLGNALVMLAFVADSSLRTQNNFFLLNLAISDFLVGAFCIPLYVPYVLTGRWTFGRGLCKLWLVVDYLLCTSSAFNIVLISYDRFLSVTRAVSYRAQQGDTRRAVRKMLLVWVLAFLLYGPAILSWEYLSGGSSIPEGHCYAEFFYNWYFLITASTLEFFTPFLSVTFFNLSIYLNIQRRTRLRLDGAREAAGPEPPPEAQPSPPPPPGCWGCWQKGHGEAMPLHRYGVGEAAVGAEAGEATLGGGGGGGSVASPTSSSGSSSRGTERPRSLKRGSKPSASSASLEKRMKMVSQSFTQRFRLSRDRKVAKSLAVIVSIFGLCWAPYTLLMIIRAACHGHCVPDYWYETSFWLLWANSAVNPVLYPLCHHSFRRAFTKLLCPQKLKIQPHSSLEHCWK

SMILES	IC50 [nM]
NCc1ccc(-c2ccc3c(c2)nc2n3C3CCC2CN(C2CCC2)C3)cc1 (centres unmarked) [Compound 31, (4-(3-cyclobutyl-2,3,4,5-tetrahydro-1H-1,5-ethanobenzo[4,5]imidazo[1,2-d][1,4]diazepin-8-yl)phenyl)methanamine]	< 100
Brc1ccc2c(c1)nc1n2CCN2CCCC2C1 (centres unmarked) [Compound 72, 10-bromo-2,3,5,6,13,13a-hexahydro-1H-benzo[4,5]imidazo[1,2-d]pyrrolo[2,1-g][1,4]diazepine]	< 100

same assay, conditions: membranes of cells expressing human H3; GTPγ[35S] SPA; antagonist testing with reference agonist at EC80 (30 nM); in one embodiment HCl salts tested; read-out: Potency (functional potency as indicated by IC50)

IC50 [nM]	SMILES
> 1000	Clc1ccc2c(c1)nc1n2C2CC(C1)N(C1CCC1)C2 (centres unmarked) [Compound 32, 8-chloro-3-cyclobutyl-2,3,4,5-tetrahydro-1H-1,4-methanobenzo[4,5]imidazo[1,2-d][1,4]diazepine]
< 1000	c1cn2cc(-c3ccc4c(c3)nc3n4C4CC(C3)N(C3CCC3)C4)ccc2n1 (centres unmarked) [Compound 34, 3-cyclobutyl-8-(imidazo[1,2-a]pyridin-6-yl)-2,3,4,5-tetrahydro-1H-1,4-methanobenzo[4,5]imidazo[1,2-d][1,4]diazepine]
< 1000	Clc1ccc2c(c1)nc1n2CC2CC1CN2C1CCC1 (centres unmarked) [Compound 35, 8-chloro-3-cyclobutyl-2,3,4,5-tetrahydro-1H-2,5-methanobenzo[4,5]imidazo[1,2-d][1,4]diazepine]
> 1000	c1cn2cc(-c3ccc4c(c3)nc3n4CC4CC3CN4C3CCC3)ccc2n1 (centres unmarked) [Compound 37, 3-cyclobutyl-8-(imidazo[1,2-a]pyridin-6-yl)-2,3,4,5-tetrahydro-1H-2,5-methanobenzo[4,5]imidazo[1,2-d][1,4]diazepine]
> 1000	c1cc2c(cc1CN1CCOCC1)nc1n2CC2CC1CN2C1CCC1 (centres unmarked) [Compound 39, 4-((3-cyclobutyl-2,3,4,5-tetrahydro-1H-2,5-methanobenzo[4,5]imidazo[1,2-d][1,7]diazepin-8-yl)methyl)morpholine]
< 100	CC1Cc2nc3cc(Br)ccc3n2CCN1C1CCC1 (centres unmarked) [Compound 40, 8-bromo-3-cyclobutyl-4-methyl-2,3,4,5-tetrahydro-1H-benzo[4,5]imidazo[1,2-d][1,4]diazepine]
< 10	CC1Cc2nc3cc(-c4ccc(C#N)cc4)ccc3n2CCN1C1CCC1 (centres unmarked) [Compound 41, 4-(3-cyclobutyl-4-methyl-2,3,4,5-tetrahydro-1H-benzo[4,5]imidazo[1,2-d][1,4]diazepin-8-yl)benzonitrile]
< 1000	CC1Cn2c(nc3cc(Br)ccc32)CCN1C1CCC1 (centres unmarked) [Compound 42, 8-bromo-3-cyclobutyl-2-methyl-2,3,4,5-tetrahydro-1H-benzo[4,5]imidazo[1,2-d][1,4]diazepine]
< 100	CC1Cn2c(nc3cc(-c4ccc(C#N)cc4)ccc32)CCN1C1CCC1 (centres unmarked) [Compound 43, 4-(3-cyclobutyl-2-methyl-2,3,4,5-tetrahydro-1H-benzo[4,5]imidazo[1,2-d][1,4]diazepin-8-yl)benzonitrile]
< 100	c1cn2cc(-c3ccc4c(c3)nc3n4CCN4CCCC[C@H]4C3)ccc2n1 [Compound 49, (S)-11-(imidazo[1,2-a]pyridin-6-yl)-1,2,3,4,6,7,14,14a-octahydrobenzo[4,5]imidazo[1,2-d]pyrido[2,1-g][1,4]diazepine]
> 1000	Brc1ccc2c(c1)nc1n2CCN(C2CCC2)C1 [Compound 52, 8-bromo-2-cyclobutyl-1,2,3,4-tetrahydrobenzo[4,5]imidazo[1,2-a]pyrazine]
< 1000	N#Cc1ccc(-c2ccc3c(c2)nc2n3CCN(C3CCC3)C2)cc1 [Compound 53, 4-(2-cyclobutyl-1,2,3,4-tetrahydrobenzo-[4,5]imidazo[1,2-a]pyrazin-8-yl)benzonitrile]
< 1000	c1cn2cc(-c3ccc4c(c3)nc3n4CCN(C4CCC4)C3)ccc2n1 [Compound 54, 2-cyclobutyl-8-(imidazo[1,2-a]pyridin-6-yl)-1,2,3,4-tetrahydrobenzo[4,5]imidazo[1,2-a]pyrazine]
< 1000	c1ccc2c(c1)ncn2-c1ccc2c(c1)nc1n2CCN(C2CCC2)C1 [Compound 55, 8-(1H-benzo[d]imidazol-1-yl)-2-cyclobutyl-1,2,3,4-tetrahydrobenzo[4,5]imidazo[1,2-a]pyrazine]
< 10	c1cc2c(cc1CN1CCOCC1)nc1n2CCN(C2CCC2)C1 [Compound 56, 4-((2-cyclobutyl-1,2,3,4-tetrahydrobenzo-[4,5]imidazo[1,2-a]pyrazin-8-yl)methyl)morpholine]
< 100	Clc1ccc2c(c1)nc1n2CCCN(C2CCC2)CC1 [Compound 57, 10-chloro-3-cyclobutyl-1,2,3,4,5,6-hexahydrobenzo[4,5]imidazo[1,2-a][1,5]diazocine]
< 10	N#Cc1ccc(-c2ccc3c(c2)nc2n3CCCN(C3CCC3)CC2)cc1 [Compound 58, 4-(3-cyclobutyl-1,2,3,4,5,6-hexahydrobenzo[4,5]imidazo[1,2-a][1,5]diazocin-10-yl)benzonitrile]
< 100	c1ccc2c(c1)CCN(Cc1ccc3c(c1)nc1n3CCN3CCCC[C@H]3C1)C2 [Compound 65, (S)-11-((3,4-dihydroisoquinolin-2(1H)-yl)methyl)-1,2,3,4,6,7,14,14a-octahydrobenzo[4,5]imidazo[1,2-d]pyrido[2,1-g][1,4]diazepine]
< 10	c1cn2cc(-c3ccc4c(c3)nc3n4CCCN4CCCCC4C3)ccc2n1 (centres unmarked) [Compound 67, 12-(imidazo[1,2-a]pyridin-6-yl)-2,3,4,6,7,8,15,15a-octahydro-1H-benzo[4,5]imidazo[1,2-a]pyrido[2,1-d][1,5]diazocine]
< 100	c1cc2c(cc1CN1CCOCC1)nc1n2CCCN2CCCCC2C1 (centres unmarked) [Compound 68, 4-((2,3,4,6,7,8,15,15a-octahydro-1H-benzo[4,5]imidazo[1,2-a]pyrido[2,1-d][1,5]diazocin-12-yl)methyl)morpholine]
< 100	c1ccc2c(c1)CCN(Cc1ccc3c(c1)nc1n3CCCN3CCCCC3C1)C2 (centres unmarked) [Compound 69]
< 10	N#Cc1ccc(-c2ccc3c(c2)nc2n3CCN3CCCC3C2)cc1 (centres unmarked) [Compound 73, 4-(2,3,5,6,13,13a-hexahydro-1H-benzo[4,5]imidazo[1,2-d]pyrrolo[2,1-g][1,4]diazepin-10-yl)benzonitrile]
< 10	c1cn2cc(-c3ccc4c(c3)nc3n4CCN4CCCC4C3)ccc2n1 (centres unmarked) [Compound 74, 10-(imidazo[1,2-a]pyridin-6-yl)-2,3,5,6,13,13a-hexahydro-1H-benzo[4,5]imidazo[1,2-d]pyrrolo[2,1-g][1,4]diazepine]
< 10	c1cc2c(cc1CN1CCOCC1)nc1n2CCN2CCCC2C1 (centres unmarked) [Compound 75, 4-((2,3,5,6,13,13a-hexahydro-1H-benzo[4,5]imidazo[,2-d]pyrrolo[2,1-g][1,4]diazepin-10-yl)methyl)morpholine]

SMILES	IC50 [nM]
c1coc(-c2ccc3c(c2)nc2n3C3CCC2CN(C2CCC2)C3)c1 (centres unmarked) [Compound 29, 3-cyclobutyl-8-(furan-2-yl)-2,3,4,5-tetrahydro-1H-1,5-ethanobenzo[4,5]imidazo[1,2-d][1,4]diazepine]	< 1000
c1cnc(-c2ccc3c(c2)nc2n3C3CCC2CN(C2CCC2)C3)cn1 (centres unmarked) [Compound 30, 3-cyclobutyl-8-(pyrazin-2-yl)-2,3,4,5-tetrahydro-1H-1,5-ethanobenzo[4,5]imidazo[1,2-d][1,4]diazepine]	< 100
N#Cc1ccc(-c2ccc3c(c2)nc2n3C3CC(C2)N(C2CCC2)C3)cc1 (centres unmarked) [Compound 33, 4-(3-cyclobutyl-2,3,4,5-tetrahydro-1H-1,4-methanobenzo[4,5]imidazo[1,2-d][1,4]diazepin-8-yl)benzonitrile]	< 1000
N#Cc1ccc(-c2ccc3c(c2)nc2n3CC3CC2CN3C2CCC2)cc1 (centres unmarked) [Compound 36, 4-(3-cyclobutyl-2,3,4,5-tetrahydro-1H-2,5-methanobenzo[4,5]imidazo[1,2-d][1,4]diazepin-8-yl)benzonitrile]	< 1000
c1ccc2c(c1)ncn2-c1ccc2c(c1)nc1n2CC2CC1CN2C1CCC1 (centres unmarked) [Compound 38, 8-(1H-benzo[d]imidazol-1-yl)-3-cyclobutyl-2,3,4,5-tetrahydro-1H-2,5-methanobenzo[4,5]imidazo[1,2-d][1,4]diazepine]	< 1000
c1cn2cc(-c3ccc4c(c3)nc3n4CC4CCC(C3)N4C3CCC3)ccc2n1 (centres unmarked) [Compound 60, 13-cyclobutyl-3-(imidazo[1,2-a]pyridin-6-yl)-6,7,8,9,10,11-hexahydro-7,10-epiminobenzo[4,5]imidazo[1,2-a]azocine]	< 10
c1ccc2c(c1)ncn2-c1ccc2c(c1)nc1n2CC2CCC(C1)N2C1CCC1 (centres unmarked) [Compound 61, 3-(1H-benzo[d]imidazol-1-yl)-13-cyclobutyl-6,7,8,9,10,11-hexahydro-7,10-epiminobenzo[4,5]imidazo[1,2-a]azocine]	< 100
c1cc2c(cc1CN1CCOCC1)nc1n2CC2CCC(C1)N2C1CCC1 (centres unmarked) [Compound 62, 4-((13-cyclobutyl-6,7,8,9,10,11-hexahydro-7,10-epiminobenzo[4,5]imidazo[1,2-a]azocin-3-yl)methyl)morpholine]	< 100
N#Cc1ccc(-c2ccc3c(c2)nc2n3CCCN3CCCCC3C2)cc1 (centres unmarked) [Compound 66, 4-(2,3,4,6,7,8,15,15a-octahydro-1H-benzo[4,5]imidazo[1,2-a]pyrido[2,1-d][1,5]diazocin-12-yl)benzonitrile]	< 10

From patent publication US20110065694A1 (priority 2009, published 2011)
